Measured values as given in patent US9163060B2, “Tubulin inhibitors” (R&D BIOPHARMACEUTICALS GMBH, priority 2009, dated 2015).

Tested on: HT-29
Test: fluorometric resazurin-based anti-proliferative assay, HT-29
Conditions: Homo sapiens, HT-29 cancer cell line
Description: Determination of the IC-50 Concentration Against Various Cancer Cell Lines
The anti-proliferative activity of some representative example compounds of the present invention was determined in-vitro using a fluorometric resazurin-based assay. Cancer cell proliferation and viability was quantified upon reduction of non-fluorescent resazurin into the fluorescent dye resorufin by metabolically active cells as described in Strotmann, U. J., et al., The dehydrogenase assay with resazurin: Practical performance as a monitoring system and pH-dependent toxicity of phenolic compounds. Ecotox. Environ. Safety 25, 79-89, (1993).

| Compound | IC50 [nM] |
| --- | --- |
| CCCN(C(=O)C(NC(=O)C1CCCCN1C)[C@@H](C)CC)[C@H](C[C@@H](OC(C)=O)c1nc(C(=O)N[C@@H](Cc2ccc(F)cc2)C(=O)O)cs1)C(C)C (stereo partly drawn) | 1 ± 0.2 |
| CCCN(C(=O)C(NC(=O)C1CCCCN1C)[C@@H](C)CC)[C@H](C[C@@H](OCOC)c1nc(C(=O)N[C@@H](Cc2ccccc2)C(=O)O)cs1)C(C)C (stereo partly drawn) | 51.1 ± 2.6 |
| CCCN(C(=O)C(NC(=O)C1CCCCN1C)[C@@H](C)CC)[C@H](C[C@@H](OC(C)=O)c1nc(C(=O)N[C@@H](Cc2ccccc2)C(=O)NCCO)cs1)C(C)C (stereo partly drawn) | 3.9 ± 0.7 |
| CCCN(C(=O)C(NC(=O)C1CCCCN1C)[C@@H](C)CC)[C@H](C[C@@H](OC(C)=O)c1nc(C(=O)N[C@@H](Cc2ccccc2)C(=O)O)cs1)C(C)C (stereo partly drawn) | 4.5 ± 0.5 |
| CC[C@H](C)C(NC(=O)C1CCCCN1C)C(=O)N(C)[C@H](C[C@@H](OC(C)=O)c1nc(C(=O)N[C@@H](Cc2ccccc2)C(=O)O)cs1)C(C)C (stereo partly drawn) | 3.2 ± 0.4 |
| CCCO[C@H](C[C@H](C(C)C)N(CCC)C(=O)C(NC(=O)C1CCCCN1C)[C@@H](C)CC)c1nc(C(=O)N[C@@H](Cc2ccc(O)cc2)C(=O)O)cs1 (stereo partly drawn) | 3.1 ± 0.6 |
